From US20030203373A1 (priority 2002, published 2003)
“And” between values parts separate entries of the source, which are not always exact repeats. Identical values can stand only once. Like-named read-outs stand apart in the source and are kept apart here. Ends that are not written are not given here.

Biological target: T1, ACE from pig kidney (Sus scrofa, UniProt F1RRW5)
T1 construct: 1 mU ACE from pig kidney (EC 3.4.15.1 (Sigma)); purchased Sigma; host or cells: pig kidney (tissue-derived enzyme)
T1 sequence (F1RRW5 34-1309): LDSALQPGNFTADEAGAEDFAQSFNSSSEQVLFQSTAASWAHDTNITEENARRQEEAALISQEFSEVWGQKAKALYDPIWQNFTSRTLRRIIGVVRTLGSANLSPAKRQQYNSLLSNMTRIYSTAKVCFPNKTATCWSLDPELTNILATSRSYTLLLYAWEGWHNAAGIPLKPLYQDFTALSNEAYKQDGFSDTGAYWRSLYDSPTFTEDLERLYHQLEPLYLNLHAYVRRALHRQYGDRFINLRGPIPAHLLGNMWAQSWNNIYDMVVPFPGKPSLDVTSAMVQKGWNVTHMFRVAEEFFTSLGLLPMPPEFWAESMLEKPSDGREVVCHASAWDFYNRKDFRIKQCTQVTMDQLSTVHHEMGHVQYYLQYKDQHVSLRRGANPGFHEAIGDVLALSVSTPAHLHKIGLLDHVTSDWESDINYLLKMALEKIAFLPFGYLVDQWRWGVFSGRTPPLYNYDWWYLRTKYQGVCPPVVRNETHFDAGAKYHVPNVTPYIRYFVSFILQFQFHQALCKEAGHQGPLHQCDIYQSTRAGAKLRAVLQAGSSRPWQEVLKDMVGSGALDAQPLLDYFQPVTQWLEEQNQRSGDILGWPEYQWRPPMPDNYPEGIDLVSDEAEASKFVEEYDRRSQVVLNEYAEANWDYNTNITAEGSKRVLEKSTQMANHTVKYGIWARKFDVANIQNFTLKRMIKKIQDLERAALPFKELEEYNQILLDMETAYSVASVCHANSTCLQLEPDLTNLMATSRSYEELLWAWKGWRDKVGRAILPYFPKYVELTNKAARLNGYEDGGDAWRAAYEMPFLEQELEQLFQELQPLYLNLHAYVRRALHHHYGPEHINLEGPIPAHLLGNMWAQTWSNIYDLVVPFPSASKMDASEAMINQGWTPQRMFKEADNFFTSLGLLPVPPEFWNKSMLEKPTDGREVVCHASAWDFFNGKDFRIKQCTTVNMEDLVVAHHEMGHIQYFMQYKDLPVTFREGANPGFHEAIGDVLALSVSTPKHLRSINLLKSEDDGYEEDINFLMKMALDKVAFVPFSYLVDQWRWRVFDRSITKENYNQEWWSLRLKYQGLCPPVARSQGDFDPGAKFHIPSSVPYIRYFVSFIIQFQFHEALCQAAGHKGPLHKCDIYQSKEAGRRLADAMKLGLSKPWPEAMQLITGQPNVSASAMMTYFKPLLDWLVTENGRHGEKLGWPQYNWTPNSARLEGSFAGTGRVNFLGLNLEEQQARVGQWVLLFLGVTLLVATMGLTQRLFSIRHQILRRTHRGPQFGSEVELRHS
Assay: biochemical
Type: biochemical
Text: These peptides were investigated for their inhibitory effect using an in vitro-ACE-inhibitor-assay with an angiotensin-converting-enzyme derived from pig kidney. Hippuryl-histidyl-leucin was used as a substrate. […] A concrete experimental description is given below.
The principle of the ACE-inhibition-assay was established by Chejung, H. S., Cushman, D. W.: “Inhibition of homogenous angiotensin converting enzyme of rabbit lung by synthetic venom peptides of Bothrops jararaca.” in Biochimica et Biophysica Acta 293, 451-563 (1973).
The assay was performed in 96 well HTRF-plates (Packard). The concentrations used for each well were:
1 mU ACE from pig kidney (EC 3.4.15.1 (Sigma)) in 30 μl of assay buffer (25 mM HEPES; 0,3 M NaCl, pH 8,2) and 20 μl inhibitor dissolved in assay buffer (0,35-200 μM). The reaction was started by adding 50 μl of 2 mM hippuryl-histidyl-leucin (Sigma) in assay buffer. The reaction was performed at room temperature (22° C.) for 30 minutes and terminated by adding 50 μl of 2 M NaOH. Afterwards 50 μl of 0,5% ortho-phtalaldehyd (Sigma) in methanol were added, 5 minutes later followed by 50 μl of 2,5 M HCl-solution to stabilize the developed fluorescence product.
The results were used to calculate the % inhibition. The IC50-values were determined graphically from a curve showing the dose-reaction ratio.
In order to minimize errors due to time-dependent differences, all pipetting steps were performed in a precise time schedule.

[1] = inhibitor 0.39 μM, replicates A-D
[2] = inhibitor 3.125 μM, replicates A-D
[3] = inhibitor 6.25 μM, replicates A-D
[4] = inhibitor 12.5 μM, replicates A-D
[5] = inhibitor 25 μM, replicates A-D
[6] = inhibitor 50 μM, replicates A-D
[7] = inhibitor 100 μM, replicates A-D
[8] = inhibitor 200 μM, replicates A-D

CC[C@H](C)[C@H](NC(=O)[C@H](CCC(N)=O)NC(=O)[C@@H]1CCCN1C(=O)[C@H](CCCNC(=N)N)NC(=O)[C@@H]1CCCN1C(=O)[C@H](Cc1c[nH]c2ccccc12)NC(=O)[C@@H]1CCC(=O)N1)C(=O)N1CCC[C@H]1C(=O)N1CCC[C@H]1C(=O)O [BPP9a, reference compound]
IC50: 0.097 µM | fluorescence reading (ACE Inhibitor Assay) (inhibitor 0.0097 μM, replicates A-D): 710140 and 732003 and 790803 and 704452 | % inhibition (ACE Inhibitor Assay) (inhibitor 0.0097 μM, replicates A-D, 0.0097 µM): 17.32% and 14.76% and 7.86% and 17.99% | fluorescence reading (ACE Inhibitor Assay) (inhibitor 0.0195 μM, replicates A-D): 651703 and 661931 and 697146 and 649942 | % inhibition (ACE Inhibitor Assay) (inhibitor 0.0195 μM, replicates A-D, 0.0195 µM): 22.97% and 18.85% and 24.38% | fluorescence reading (ACE Inhibitor Assay) (inhibitor 0.039 μM, replicates A-D): 555538 and 591749 and 454421 and 628809 | % inhibition (ACE Inhibitor Assay) (inhibitor 0.039 μM, replicates A-D, 0.039 µM): 35.44% and 31.2% and 47.3% and 26.86% | fluorescence reading (ACE Inhibitor Assay) (inhibitor 0.078 μM, replicates A-D): 487053 and 445495 and 462323 and 446174 | % inhibition (ACE Inhibitor Assay) (inhibitor 0.078 μM, replicates A-D, 0.078 µM): 48.35% and 46.37% and 48.26% | fluorescence reading (ACE Inhibitor Assay) (inhibitor 0.15625 μM, replicates A-D): 317736 and 311280 and 262186 and 309352 | % inhibition (ACE Inhibitor Assay) (inhibitor 0.15625 μM, replicates A-D, 0.15625 µM): 64.08% and 69.83% and 64.3% | fluorescence reading (ACE Inhibitor Assay) (inhibitor 0.3125 μM, replicates A-D): 143514 and 147997 and 149103 and 141700 | % inhibition (ACE Inhibitor Assay) (inhibitor 0.3125 μM, replicates A-D, 0.3125 µM): 83.22% and 83.09% and 83.96% | fluorescence reading (ACE Inhibitor Assay) (inhibitor 0.625 μM, replicates A-D): 60333 and 60929 and 57514 and 55616 | % inhibition (ACE Inhibitor Assay) (inhibitor 0.625 μM, replicates A-D, 0.625 µM): 93.43% and 93.82% and 94.05% | fluorescence reading (ACE Inhibitor Assay) (inhibitor 1.25 μM, replicates A-D): 27485 and 26994 and 27156 and 25833 | % inhibition (ACE Inhibitor Assay) (inhibitor 1.25 μM, replicates A-D, 1.25 µM): 97.4% and 97.38% and 97.54% | fluorescence reading (ACE Inhibitor Assay) (inhibitor 2.5 μM, replicates A-D): 13903 and 14148 and 15119 and 13979 | % inhibition (ACE Inhibitor Assay) (inhibitor 2.5 μM, replicates A-D, 2.5 µM): 98.91% and 98.79% and 98.93% | fluorescence reading (ACE Inhibitor Assay) (inhibitor 5 μM, replicates A-D): 9634 and 9626 and 9656 and 10561 | % inhibition (ACE Inhibitor Assay) (inhibitor 5 μM, replicates A-D, 5 µM): 99.33% | inhibition at 0.0195 µM (read-out: % inhibition (ACE Inhibitor Assay), inhibitor 0.0195 μM, replicates A-D): 24.2% | inhibition at 0.078 µM (read-out: % inhibition (ACE Inhibitor Assay), inhibitor 0.078 μM, replicates A-D): 43.5% | inhibition at 0.15625 µM (read-out: % inhibition (ACE Inhibitor Assay), inhibitor 0.15625 μM, replicates A-D): 63.3% | inhibition at 0.3125 µM (read-out: % inhibition (ACE Inhibitor Assay), inhibitor 0.3125 μM, replicates A-D): 83.8% | inhibition at 0.625 µM (read-out: % inhibition (ACE Inhibitor Assay), inhibitor 0.625 μM, replicates A-D): 93.5% | inhibition at 1.25 µM (read-out: % inhibition (ACE Inhibitor Assay), inhibitor 1.25 μM, replicates A-D): 97.3% | inhibition at 2.5 µM (read-out: % inhibition (ACE Inhibitor Assay), inhibitor 2.5 μM, replicates A-D): 98.9% | inhibition at 5 µM (read-out: % inhibition (ACE Inhibitor Assay), inhibitor 5 μM, replicates A-D): 99.4%

AGAALSPLPEVPP [Peptide S543]
IC50 (ACE from pig kidney, determined graphically, read-out: IC50-value (ACE inhibition)): 25 µM | fluorescence reading (ACE Inhibitor Assay) [1]: 959059 and 985299 and 971597 and 996656 | inhibition at 0.39 µM [1]: 7.74% | % inhibition (ACE Inhibitor Assay) (inhibitor 0.39 μM, replicates A-D, 0.39 µM): 5.2% and 6.53% and 4.1% | fluorescence reading (ACE Inhibitor Assay) (inhibitor 0.78125 μM, replicates A-D): 946496 and 913444 and 925926 and 981909 | % inhibition (ACE Inhibitor Assay) (inhibitor 0.78125 μM, replicates A-D, 0.78125 µM): 8.95% and 12.15% and 10.945% and 5.53% | fluorescence reading (ACE Inhibitor Assay) (inhibitor 1.5625 μM, replicates A-D): 923507 and 888699 and 915925 and 980940 | % inhibition (ACE Inhibitor Assay) (inhibitor 1.5625 μM, replicates A-D, 1.5625 µM): 11.18% and 14.54% and 11.9% and 5.62% | fluorescence reading (ACE Inhibitor Assay) [2]: 868636 and 880388 and 856283 and 938801 | inhibition at 3.125 µM [2]: 16.5% | % inhibition (ACE Inhibitor Assay) (inhibitor 3.125 μM, replicates A-D, 3.125 µM): 15.35% and 17.68% and 9.7% | fluorescence reading (ACE Inhibitor Assay) [3]: 816251 and 788199 and 773151 and 833135 | inhibition at 6.25 µM [3]: 21.6% | % inhibition (ACE Inhibitor Assay) (inhibitor 6.25 μM, replicates A-D, 6.25 µM): 24.26% and 25.72% and 19.92% | fluorescence reading (ACE Inhibitor Assay) [4]: 683603 and 714973 and 720213 and 700323 | inhibition at 12.5 µM [4]: 34.4% | % inhibition (ACE Inhibitor Assay) (inhibitor 12.5 μM, replicates A-D, 12.5 µM): 31.35% and 30.84% and 32.76% | fluorescence reading (ACE Inhibitor Assay) [5]: 519515 and 531562 and 515233 and 534895 | inhibition at 25 µM [5]: 50.2% | % inhibition (ACE Inhibitor Assay) (inhibitor 25 μM, replicates A-D, 25 µM): 49.09% and 50.66% and 48.76% | fluorescence reading (ACE Inhibitor Assay) [6]: 362416 and 357767 and 358975 and 367216 | inhibition at 50 µM [6]: 65.5% | % inhibition (ACE Inhibitor Assay) (inhibitor 50 μM, replicates A-D, 50 µM): 65.9% and 65.78% and 64.98% | fluorescence reading (ACE Inhibitor Assay) [7]: 211437 and 206169 and 209393 and 219372 | inhibition at 100 µM [7]: 80% | % inhibition (ACE Inhibitor Assay) (inhibitor 100 μM, replicates A-D, 100 µM): 80.56% and 80.25% and 79.28% | fluorescence reading (ACE Inhibitor Assay) [8]: 107628 and 110019 and 108841 and 111945 | inhibition at 200 µM [8]: 90.1% | % inhibition (ACE Inhibitor Assay) (inhibitor 200 μM, replicates A-D, 200 µM): 89.95% and 89.97% and 89.67%
